The record followed here is patent US10227350B2 (Gilead Sciences, Inc., priority 2016, dated 2019).

pIC50: −log10 of the molar value.

The target in this test is PI3Kβ (Homo sapiens (Human), UniProt P42338). The test is described as follows: TR-FRET enzymatic activity assay, PI3Kβ. The format is biochemical. As to conditions: 2× Km ATP, 2 μM PIP2, 30 minutes at 25° C., read-out: IC50-PIP-Beta. On the procedure: The compounds of formula (I) were characterized for their enzymatic activity against the PI3K isoforms. The activities were measured using a time-resolved fluorescence resonance energy transfer (TR-FRET) assay. TR-FRET monitored the formation of 3,4,5-inositol triphosphate molecule that competed with fluorescently labeled PIPS for binding to the GRP-1 pleckstrin homology domain protein.
Chain of PI3Kβ (P42338 whole entry, the tested form may be a part, canonical isoform): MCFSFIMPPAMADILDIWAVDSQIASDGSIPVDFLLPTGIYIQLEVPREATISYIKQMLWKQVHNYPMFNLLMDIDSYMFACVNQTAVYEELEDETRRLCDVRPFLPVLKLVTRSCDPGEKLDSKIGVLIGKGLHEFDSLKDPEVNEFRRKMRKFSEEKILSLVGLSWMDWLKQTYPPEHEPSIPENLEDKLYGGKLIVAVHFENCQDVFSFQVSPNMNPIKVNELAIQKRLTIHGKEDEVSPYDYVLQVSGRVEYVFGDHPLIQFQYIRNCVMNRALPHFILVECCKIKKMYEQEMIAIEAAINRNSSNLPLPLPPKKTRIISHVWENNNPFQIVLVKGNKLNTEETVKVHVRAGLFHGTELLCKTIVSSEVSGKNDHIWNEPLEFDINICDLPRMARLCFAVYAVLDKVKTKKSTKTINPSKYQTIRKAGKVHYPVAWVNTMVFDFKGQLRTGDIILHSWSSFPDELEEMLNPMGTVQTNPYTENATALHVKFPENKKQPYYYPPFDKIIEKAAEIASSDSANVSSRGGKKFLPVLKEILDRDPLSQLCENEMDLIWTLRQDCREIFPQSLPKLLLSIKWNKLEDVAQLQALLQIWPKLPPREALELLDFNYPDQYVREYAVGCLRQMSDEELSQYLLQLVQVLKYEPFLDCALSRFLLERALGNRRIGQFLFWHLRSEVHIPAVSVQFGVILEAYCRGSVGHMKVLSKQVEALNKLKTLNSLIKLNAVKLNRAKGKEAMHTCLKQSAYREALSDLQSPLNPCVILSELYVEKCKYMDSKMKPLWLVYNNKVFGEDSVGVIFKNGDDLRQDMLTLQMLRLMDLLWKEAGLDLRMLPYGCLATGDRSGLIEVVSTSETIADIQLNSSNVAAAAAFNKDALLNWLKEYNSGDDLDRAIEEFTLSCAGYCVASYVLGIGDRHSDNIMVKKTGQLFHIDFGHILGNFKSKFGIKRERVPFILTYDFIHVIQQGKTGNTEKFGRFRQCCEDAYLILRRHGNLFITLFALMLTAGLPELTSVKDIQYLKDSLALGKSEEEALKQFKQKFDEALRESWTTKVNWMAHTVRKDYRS
Chain of PI3Kβ (P27986 whole entry partner, the tested form may be a part, canonical isoform): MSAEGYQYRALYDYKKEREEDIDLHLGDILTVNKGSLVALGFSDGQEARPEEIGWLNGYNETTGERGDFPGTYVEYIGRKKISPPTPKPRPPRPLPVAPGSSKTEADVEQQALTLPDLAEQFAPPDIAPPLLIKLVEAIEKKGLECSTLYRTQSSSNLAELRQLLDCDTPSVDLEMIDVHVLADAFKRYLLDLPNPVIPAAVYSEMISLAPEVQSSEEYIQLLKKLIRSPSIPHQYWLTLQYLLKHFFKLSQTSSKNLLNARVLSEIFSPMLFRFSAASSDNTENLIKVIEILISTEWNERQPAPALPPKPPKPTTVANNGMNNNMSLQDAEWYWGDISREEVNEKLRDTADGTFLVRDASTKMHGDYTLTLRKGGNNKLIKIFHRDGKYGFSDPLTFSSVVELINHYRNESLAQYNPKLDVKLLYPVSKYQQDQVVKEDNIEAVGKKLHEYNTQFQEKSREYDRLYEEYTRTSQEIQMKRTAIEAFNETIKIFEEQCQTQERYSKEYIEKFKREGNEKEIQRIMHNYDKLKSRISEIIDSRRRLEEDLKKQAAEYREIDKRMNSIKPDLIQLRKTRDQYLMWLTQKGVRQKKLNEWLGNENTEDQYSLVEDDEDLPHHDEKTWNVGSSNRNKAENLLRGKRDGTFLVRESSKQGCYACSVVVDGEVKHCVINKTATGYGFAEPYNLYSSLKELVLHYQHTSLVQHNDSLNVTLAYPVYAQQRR
Class I PI3K isoforms were expressed and purified as heterodimeric recombinant proteins. All assay reagents and buffers for the TR-FRET assay were purchased from Millipore. […] The compounds were added to the assay solution and incubated for 30 minutes at 25° C.

Turning to `CCc1nc2c(-c3nnc[nH]3)cc(-c3ccnc(N)c3F)cc2n1-c1ccnc2c(F)ccc(F)c12` (single isomer, unassigned) [Example 110, 4-[3-(5,8-difluoroquinolin-4-yl)-2-ethyl-7-(4H-1,2,4-triazol-3-yl)benzimidazol-5-yl]-3-fluoropyridin-2-amine], the pIC50 is 8.70. As for `Cc1nc2c(-c3nnc[nH]3)cc(-c3ccnc(F)c3F)cc2n1-c1ccnc2c(F)ccc(F)c12` [Example 42, 4-[6-(2,3-difluoropyridin-4-yl)-2-methyl-4-(4H-1,2,4-triazol-3-yl)benzimidazol-1-yl]-5,8-difluoroquinoline], the pIC50 is 8.00.

As to `Cc1nc2c(C(=O)O)cc(-c3ccnc(N)c3F)cc2n1-c1ccnc2c(F)ccc(F)c12` [Example 4, 6-(2-amino-3-fluoropyridin-4-yl)-1-(5,8-difluoroquinolin-4-yl)-2-methyl-1H-benzo[d]imidazole-4-carboxylic acid], the pIC50 was 7.70. For the molecule `Cc1nc2c(C(N)=O)cc(-c3ccncc3)cc2n1-c1ccnc2cccc(F)c12` [Example 8, 1-(5-fluoroquinolin-4-yl)-2-methyl-6-pyridin-4-ylbenzimidazole-4-carboxamide], the pIC50 was 7.09. In the case of `CCc1nc2c(-c3nnc[nH]3)cc(-c3ccnc(N)c3)cc2n1-c1ccnc2cc(F)ccc12` [Example 52, 4-[2-ethyl-3-(7-fluoroquinolin-4-yl)-7-(4H-1,2,4-triazol-3-yl)benzimidazol-5-yl]pyridin-2-amine], the pIC50 is 6.48.

On to `Cc1nc2c(-c3nnc[nH]3)cc(-c3ccnc(C#N)c3)cc2n1-c1ccnc2c(Cl)ccc(F)c12` [Example 153, 4-(1-(8-chloro-5-fluoroquinolin-4-yl)-2-methyl-4-(4H-1,2,4-triazol-3-yl)-1H-benzo[d]imidazol-6-yl)picolinonitrile], for which the pIC50 was 8.15. For the molecule `CNc1cc(-c2cc(-c3nnc[nH]3)c3nc(C)n(-c4ccnc5c(F)ccc(F)c45)c3c2)c(F)cn1` [Example 82, 4-[3-(5,8-difluoroquinolin-4-yl)-2-methyl-7-(4H-1,2,4-triazol-3-yl)benzimidazol-5-yl]-5-fluoro-N-methylpyridin-2-amine], the negative logarithm of the IC50 (pIC50) was 6.92. With `Cc1cc(-n2c(C)nc3c(C(N)=O)cc(-c4ccncc4)cc32)c2ccccc2n1` [Example 10, 2-methyl-1-(2-methylquinolin-4-yl)-6-pyridin-4-ylbenzimidazole-4-carboxamide], the negative logarithm of the IC50 (pIC50) was 5.80. Regarding `Cc1nc2c(-c3nnc[nH]3)cc(-c3ccnc(C#N)c3)cc2n1-c1ccnc2cc(F)cc(F)c12` [Example 143, 4-(1-(5,7-difluoroquinolin-4-yl)-2-methyl-4-(4H-1,2,4-triazol-3-yl)-1H-benzo[d]imidazol-6-yl)picolinonitrile], the negative logarithm of the IC50 (pIC50) was 8.22. As for `Cc1nc2c(C(=O)O)cc(-c3ccnc(N)n3)cc2n1-c1ccnc2c(Cl)cccc12` [Example 2], the negative logarithm of the IC50 (pIC50) is 7.89. The figure for `Cc1nc2c(-c3nnc[nH]3)cc(-c3ccncc3F)cc2n1-c1ccnc2c(Cl)cccc12` (single isomer, unassigned) [Example 137, 8-chloro-4-(6-(3-fluoropyridin-4-yl)-2-methyl-4-(4H-1,2,4-triazol-3-yl)-1H-benzo[d]imidazol-1-yl)quinoline] is 8.00. Regarding `Cc1nc2c(-c3nnc[nH]3)cc(-c3ccnc(N)c3F)cc2n1-c1ccnc2c(F)ccc(F)c12` (atropisomer, axis not shown) [Example 106, 4-[3-(5,8-difluoroquinolin-4-yl)-2-methyl-7-(4H-1,2,4-triazol-3-yl)benzimidazol-5-yl]-3-fluoropyridin-2-amine], the pIC50 is 8.52.

With `Cc1nc2c(-c3nnc[nH]3)cc(-c3ccnc(C#N)c3)cc2n1-c1ccnc2c(F)ccc(Cl)c12` [Example 144, 4-(1-(5-chloro-8-fluoroquinolin-4-yl)-2-methyl-4-(4H-1,2,4-triazol-3-yl)-1H-benzo[d]imidazol-6-yl)picolinonitrile], the pIC50 was 7.74. For the molecule `Cc1nc2c(-c3nnc[nH]3)cc(-c3ccnc(C#N)c3)cc2n1-c1ccnc2c(Cl)cccc12` (single isomer, unassigned) [Example 130, 4-(1-(8-chloroquinolin-4-yl)-2-methyl-4-(4H-1,2,4-triazol-3-yl)-1H-benzo[d]imidazol-6-yl)picolinonitrile], the pIC50 is 7.24.

On to `Cc1nnc(-c2cc(-c3ccnc(C#N)c3)cc3c2nc(C)n3-c2ccnc3c(F)ccc(F)c23)[nH]1` [Example 151, 4-(1-(5,8-difluoroquinolin-4-yl)-2-methyl-4-(5-methyl-4H-1,2,4-triazol-3-yl)-1H-benzo[d]imidazol-6-yl)picolinonitrile], for which the pIC50 was 7.10. The figure for `Cc1nc2c(-c3nnc[nH]3)cc(-c3ccnc(C#N)c3)cc2n1-c1ccnc2c(F)cccc12` [Example 148, 4-(1-(8-fluoroquinolin-4-yl)-2-methyl-4-(4H-1,2,4-triazol-3-yl)-1H-benzo[d]imidazol-6-yl)picolinonitrile] is 7.80. The figure for `NC(=O)c1cc(-c2ccncc2)cc2c1ncn2-c1ccnc2c(Cl)cccc12` [Example 5, 1-(8-chloroquinolin-4-yl)-6-pyridin-4-ylbenzimidazole-4-carboxamide] is 7.07; for `Cc1nc2c(-c3nnc[nH]3)cc(-c3ccncc3F)cc2n1-c1ccnc2c(Cl)cccc12` [Example 39, 8-chloro-4-[6-(3-fluoropyridin-4-yl)-2-methyl-4-(4H-1,2,4-triazol-3-yl)benzimidazol-1-yl]quinoline] it is 8.30; for `Cc1nc2c(-c3nnc[nH]3)cc(-c3ccnc(N)c3F)cc2n1-c1ccnc2c(F)ccc(F)c12` [Example 75, 4-[3-(5,8-difluoroquinolin-4-yl)-2-methyl-7-(4H-1,2,4-triazol-3-yl)benzimidazol-5-yl]-3-fluoropyridin-2-amine] it is 8.52.

Turning to `Cc1cnc2c(Cl)cccc2c1-n1c(C)nc2c(-c3nnc[nH]3)cc(-c3ccnc(N)c3F)cc21` [Example 89, 4-[3-(8-chloro-3-methylquinolin-4-yl)-2-methyl-7-(4H-1,2,4-triazol-3-yl)benzimidazol-5-yl]-3-fluoropyridin-2-amine], the pIC50 was 8.52.

As to `Cc1nc2c(C(N)=O)cc(-c3ccncc3F)cc2n1-c1ccnc2c(Cl)cccc12` [Example 14, 1-(8-chloroquinolin-4-yl)-6-(3-fluoropyridin-4-yl)-2-methylbenzimidazole-4-carboxamide], the pIC50 is 7.21. As to `Cc1nc2c(C(=O)O)cc(-c3ccncc3)cc2n1-c1ccnc2c(Cl)cccc12` [Example 1], the negative-log IC50 (pIC50) is 7.47. On to `Cc1cc(-c2cc(-c3nnc[nH]3)c3nc(C)n(-c4ccnc5c(F)ccc(F)c45)c3c2)ncn1` [Example 155, 5,8-difluoro-4-(2-methyl-6-(6-methylpyrimidin-4-yl)-4-(4H-1,2,4-triazol-3-yl)-1H-benzo[d]imidazol-1-yl)quinoline], for which the pIC50 was 7.21. Turning to `Fc1nccc(-c2ccc3ncn(-c4cc(N5CCNCC5)nc5ccccc45)c3c2)c1F` [Example 165, 4-(6-(2,3-difluoropyridin-4-yl)-1H-benzo[d]imidazol-1-yl)-2-(piperazin-1-yl)quinoline], the pIC50 is 6.32. `Cc1nc2c(-c3nnc[nH]3)cc(-c3ccnc(F)c3)cc2n1-c1ccnc2c(F)ccc(F)c12` [Example 159, 5,8-difluoro-4-(6-(2-fluoropyridin-4-yl)-2-methyl-4-(4H-1,2,4-triazol-3-yl)-1H-benzo[d]imidazol-1-yl)quinoline]: the negative logarithm of the IC50 (pIC50) was 8.30. As to `Cc1nc2c(-c3nnc[nH]3)cc(-c3ccnc(N)c3)cc2n1-c1ccnc2c(F)ccc(F)c12` [Example 48, 4-[3-(5,8-difluoroquinolin-4-yl)-2-methyl-7-(4H-1,2,4-triazol-3-yl)benzimidazol-5-yl]pyridin-2-amine], the negative-log IC50 (pIC50) is 8.00. As for `NC(=O)c1cc(-c2ccncc2)cc2c1nc(C1COC1)n2-c1ccnc2c(Cl)cccc12` [Example 12, 1-(8-chloroquinolin-4-yl)-2-(oxetan-3-yl)-6-pyridin-4-ylbenzimidazole-4-carboxamide], the figure is 6.47; as for `Cc1nc2c(-c3nnc[nH]3)cc(-c3ccnc(N)c3F)cc2n1-c1ccnc2cc(F)cc(F)c12` (single isomer, unassigned) [Example 118], 7.46. Take `Nc1nccc(-c2cc(-c3nnc[nH]3)c3nc(C4CC4)n(-c4ccnc5c(F)cccc45)c3c2)c1F` [Example 88, 4-[2-cyclopropyl-3-(8-fluoroquinolin-4-yl)-7-(4H-1,2,4-triazol-3-yl)benzimidazol-5-yl]-3-fluoropyridin-2-amine]: the negative-log IC50 (pIC50) is 6.96.

Regarding `Cc1nc2c(C(N)=O)cc(-c3ccncc3)cc2n1-c1ccnc2c(F)ccc(F)c12` [Example 6, 1-(5,8-difluoroquinolin-4-yl)-2-methyl-6-pyridin-4-ylbenzimidazole-4-carboxamide], the negative logarithm of the IC50 (pIC50) was 7.44. As to `CCc1nc2c(-c3nnc[nH]3)cc(-c3ccnc(N)c3F)cc2n1-c1ccnc2cccc(F)c12` [Example 94, 4-[2-ethyl-3-(5-fluoroquinolin-4-yl)-7-(4H-1,2,4-triazol-3-yl)benzimidazol-5-yl]-3-fluoropyridin-2-amine], the negative-log IC50 (pIC50) was 8.10. For the molecule `Cc1nc2c(-c3nnc[nH]3)cc(-c3ccnc(C(F)F)c3)cc2n1-c1ccnc2c(F)ccc(F)c12` [Example 43, 4-(6-(2-(difluoromethyl)pyridin-4-yl)-2-methyl-4-(4H-1,2,4-triazol-3-yl)-1H-benzo[d]imidazol-1-yl)-5,8-difluoroquinoline], the pIC50 was 7.52. Regarding `Cc1nc2c(-c3nnc[nH]3)cc(-c3ccnc(C#N)n3)cc2n1-c1ccnc2c(F)ccc(F)c12` [Example 152, 4-(1-(5,8-difluoroquinolin-4-yl)-2-methyl-4-(4H-1,2,4-triazol-3-yl)-1H-benzo[d]imidazol-6-yl)pyrimidine-2-carbonitrile], the pIC50 was 8.00.

The pIC50 is the IC50 on a negative log10 scale, so that one unit is a factor of ten.
